The values that follow come from US9040673B2, “Synthesis and identification of novel RSK-specific inhibitors” (University of Virginia Patent Foundation, priority 2009, dated 2015).

Test [1] deals with p140, a RSK substrate. Briefly: p140 phosphorylation in LNCaP line (anti-RPM antibody). Type of test: cell-based, human. The protocol:
The ability of SL0101-1 to inhibit the proliferation of the androgen-dependent human prostate line, LNCaP was tested. […] To investigate the RSK signal transduction pathway in the LNCaP line, a phosphospecific antibody to a RSK phosphorylation motif (RPM) was produced. Only a few downstream effectors of RSK have been identified and therefore, applicants anticipated that an anti-RPM antibody would be a very effective tool for identifying novel RSK substrates in vivo. An anti-RPM antibody has previously been reported that recognizes the RSK substrate, p140, a protein of unknown function. […] All lysates were normalized to each other using an anti-Ran antibody. Ran is used for normalization based on the observations that it is a general housekeeping protein, the activity or expression levels of which are not known to vary in any disease state.

Test [2] deals with HUVEC cells. Briefly: VEGF-induced capillary network formation in HUVEC cells. It counts as cell-based, human. The conditions noted are these: 60 μM, 10 ng/ml VEGF, 20 hours. The protocol:
Interfering with tube formation is a characteristic common to anti-angiogenic treatments. HUVEC cells were seeded at a density of 1×10^5 cells per well in 24-well culture dishes coated in growth factor-reduced Matrigel (BD Biosciences). […] The cells were incubated at 37° C. for 20 hours. Images of the cells were captured for analysis of the capillary-like network.

The subject of test [3] is Ha-Ras transformed NIH/3T3 cells. In words: proliferation of Ha-Ras transformed NIH/3T3 cells. Type of test: cell-based. The protocol: FIGS. 7A & 7B. SL0101-1 inhibition of cell proliferation is reversible. FIG. 7A: Ha-Ras-transformed cells were treated with vehicle or 50 μM SL0101-1. After 48 hr the medium was replaced and cells previously incubated with vehicle were maintained in vehicle. Cells that had previously been incubated with SL0101-1 were treated with either SL0101-1 or vehicle (washout). Cell viability was measured 48 hr later. FIG. 7B: Determination of siRNA to inhibit cancer cell proliferation. Duplex siRNAs to a sequence in the bluescript plasmid (Control), RSK1, RSK2 or RSK1 and RSK2 were transfected into MCF-7 cells. Medium was replaced 24 hr post-transfection and the cells incubated for an additional 48 hr prior to measuring cell viability.
The importance of MAPK to proliferation and oncogenesis is well established. However, the role that RSK plays in these processes has not been examined. […] SL0101-1 produced striking morphology changes in the transformed cells but not in the parental cell line. The vehicle control treated Ha-Ras transformed cells were elongated whereas in response to SL0101-1 the cells became much larger and flatter, appearing more like the parental cells, or like Ha-Ras transformed cells treated with U0126.
Cell Culture. […] Cell viability was measured at indicated time points using CellTiter-Glo™ assay reagent (Promega) according to manufacturer's protocol. […]

Test [4] has as its system mouse primary peritoneal macrophages. In words: LPS-induced iNOS expression in primary peritoneal macrophages. The conditions noted are these: 60 μM, 1 μg/ml LPS, 24 hours. Type of test: cell-based.
For test [5], the system named is LNCaP cells. In words: LNCaP cell proliferation. Type of test: cell-based, human. The conditions noted are these: 50 μM (FIG. 8B). The protocol:
(§1) FIGS. 8A-8D SL0101-1 inhibits the proliferation of cancer cells but not normal cells. […] Cell viability was measured at indicated time points. Proliferation assays were conducted using CellTiter-Glo Luminescent Cell Viability Assay (Promega), performed 44 hrs after treatment for FIGS. 8A &B and at indicated points for FIG. 8C. The data are expressed relative to time 0.
(§2) Cell Culture. For proliferation studies cells were seeded at 2500 to 5000 cells per well in 96 well tissue culture plates in the appropriate medium as described by American Type Culture Collection. After 24 hr, the medium was replaced with medium containing compound or vehicle as indicated. Cell viability was measured at indicated time points using CellTiter-Glo™ assay reagent (Promega) according to manufacturer's protocol. For in vivo inhibition studies, cells were seeded at 2.5×10^5 cells/well in 12 well cell culture clusters. After 24 hr, the cells were serum starved for 24 hr then incubated with compound or vehicle for 3 hr prior to a 30 min PDB stimulation. Cells were lysed as previously described (J. Biol. Chem. 273, 13317-13323 (1998)). The lysates were normalized for total protein, electrophoresed and immunoblotted. For cell imaging, Ha-Ras-transformed NIH/3T3 cells were seeded on LABTEK II chamber slides (Nalge) at a density of 1×10^4 cells/well. After 24 hr, fresh medium was added the indicated compounds or vehicle. […]

Test [6] has as its system pp 140, a known RSK substrate. Briefly: pp 140 phosphorylation in HUVEC cells. The conditions noted are these: 60 μM, 2 hr; with or without 500 nM phorbol dibutyrate. Type of test: cell-based, human. The protocol:
HUVEC cells were seeded at a density of 3×10^5 cells per 35 mm dish and were maintained in complete growth medium. […] The cells were harvested and lysates prepared for SDS-PAGE and immunoblot analysis. The phosphorylation state of pp 140 was determined using a phosphospecific antibody generated against the phosphorylated peptide—LAS(P)TND.

For test [7], the system named is p140, a RSK substrate. In words: PDB-induced p140 phosphorylation in MCF-7 cells (immunoblot). Type of test: cell-based, human. The conditions noted are these: 100 μM, 3 hr pre-incubation, 500 nM PDB 30 min. Here is the method: To determine whether SL0101-1 inhibits RSK in intact cells, phosphorylation of p140, a RSK substrate of unknown function, was examined in a human breast cancer cell line, MCF-7. MCF-7 and MCF-10A cells were pre-incubated with vehicle, 50 μM U0126 or the indicated concentration of SL0101-1 for 3 hr (FIG. 8D). Cells were treated with 500 nM PDB for 30 min prior to lysis. Protein concentration of lysates was measured and lysates were electrophoresed, transferred and immunoblotted. […] Pre-incubation of cells with 100 μM SL0101-1 abrogates phorbol dibutyrate (PDB)-induced p140 phosphorylation as does 50 μM U0126, a MEK inhibitor.
as §2, with “(1998)).” for “(1998)). The lysates were normalized for total protein, electrophoresed and immunoblotted. For cell imaging, Ha-Ras-transformed NIH/3T3 cells were seeded on LABTEK II chamber slides (Nalge) at a density of 1×10^4 cells/well. After 24 hr, fresh medium was added the indicated compounds or vehicle.”
On the technique in general: Immunoblotting shows a protein as a band on a membrane.

The subject of test [8] is HUVEC cells. In words: HUVEC cell growth. It counts as cell-based, human.
Test [9] relates to VCAM. In words: LPS-induced VCAM expression in HUVEC cells. Type of test: cell-based, human. The conditions noted are these: 1 μg/ml LPS, 24 hours. The text has this: Twenty-four hours after LPS treatment, the cells were harvested with SDS lysis buffer in preparation for SDS-PAGE and immunoblot analysis. Lysates were normalized with regard to protein concentration. Equivalent loading was confirmed by use of an anti-Ran immunoblot.

Test [10] has as its system MCF-10A cells. Briefly: MCF-10A cell proliferation. Type of test: cell-based, human. The conditions noted are these: 50 μM (FIG. 8A). The protocol:
The cell number was measured after 48 h of treatment. Values given are the fold proliferation as a percentage of that observed with vehicle-treated cells. Points, mean (n=2 in quadruplicate); bars=SD.
as §1
Cell Culture. For proliferation studies cells were seeded at 2500 to 5000 cells per well in 96 well tissue culture plates in the appropriate medium as described by American Type Culture Collection. After 24 hr, the medium was replaced with medium containing compound or vehicle as indicated. Cell viability was measured at indicated time points using CellTiter-Glo™ assay reagent (Promega) according to manufacturer's protocol. For in vivo inhibition studies, cells were seeded at 2.5×10^5 cells/well in 12 well cell culture clusters. After 24 hr, the cells were serum starved for 24 hr then incubated with compound or vehicle for 3 hr prior to a 30 min PDB stimulation. Cells were lysed as previously described (J. Biol. Chem. 273, 13317-13323 (1998)). The lysates were normalized for total protein, electrophoresed and immunoblotted. For cell imaging, Ha-Ras-transformed NIH/3T3 cells were seeded on LABTEK II chamber slides (Nalge) at a density of 1×10^4 cells/well. After 24 hr, fresh medium was added the indicated compounds or vehicle. Images were taken 48 hr after treatment at a magnification of 20×.

Turning to `CC(=O)O[C@@H]1[C@@H](OC(C)=O)[C@@H](O)[C@H](Oc2c(-c3ccc(O)cc3)oc3cc(O)cc(O)c3c2=O)O[C@H]1C` [SL0101, kaempferol 3-O-(3″,4″-di-O-acetyl-α-L-rhamnopyranoside)], the “phosphorylation of p140” value in [1] is “decrease the phosphorylation of p140”. For the same molecule, in test [2], the capillary-like network formation entry is recorded as “indistinguishable from those treated with SU1498”. Moreover, the “growth rate of Ha-Ras transformed cells” value in test [3] is reported as “decreased the growth rate”. The “reversibility of growth inhibition (washout)” value in [3] (50 μM for 48 hr, then washout, viability 48 hr later) was “Removal of SL0101-1 resulted in growth of the transformed cells”. In addition, in [4], the “LPS-induced iNOS expression” value is “abrogates iNOS expression”. Moreover, the “proliferation of LNCaP cells” value in test [5] was “completely inhibits the proliferation”. Further, the “phosphorylation of pp 140” value in [6] is “reduced the phosphorylation of pp 140”. Besides, the “PDB-induced p140 phosphorylation” value in test [7] is “abrogates”. The “rate of HUVEC cell growth” value in test [8] is on record as “does not alter the rate of HUVEC cell growth”. Further, the “expression of VCAM” value in test [9] is “reduced expression of the angiogenesis marker VCAM in a dose-dependent manner”. The “proliferation of MCF-10A cells” value in test [10] is “no effect on the growth”.
